This note sets out measurements from patent US3997506A (priority 1974, dated 1976).

In series [1] the test system is human leucocytes. The note with it: Table 11; for Count of leucocytes after 72 hours: Culture II.
Description: Contrary to the previous experiment in which different volumes of a solution of a given concentration have been added, in this experiment the various concentrations were prepared through dilution of a concentrated solution in order to add a same volume of methanol to each culture.
Series [2] concerns human leucocytes. Put plainly: in vitro. It counts as cell-based. The settings on record: Cultures I and II. On the procedure: (§1) The cytotoxicity has been investigated on human leucocytes by means of the viability test with Trypan blue.
(§2) a. In a first experimentation cultures of leucocytes of a voluntary […] were prepared and caused to undergo incubation with phytohemagglutinin (PHA) and with different concentrations of colchicine or of its derivative (C1 = 2.5 μg/ml of culture, C3 = 10 μg/ml, C5 = 30 μg/ml, C6 = 50 μg/ml). Leucocytes only containing PHA served as controls.
(§3) After 3, 42, 68 and 72 hours of incubation a sample of each culture was contacted by a drop of Trypan blue and laid on a slide of a microscope. Then took place the counting of the dead cells (those with assumed an […] colour) and of all the cells present on the slide in order to obtain the ratio of the number of dead cells to the total number of cells. The results expressed as a rate in per cent are shown in the accompanying table 8.
(§4) b. After the experimentation which has just been described, the study of cytotoxicity has been continued with two other samples of human leucocytes still by means of the viability test with Trypan blue.
(§5) C1 = 2.5 μg/ml of culture
(§6) C6 = 50 μg/ml of culture;
(§7) and for the carboxy-1-adamantane fraction to:
(§8) C3 = 4.5 μg/ml of culture
(§9) C6 = 22.5 μg/ml of culture.
(§10) Leucocytes only containing phytohemagglutinin and others containing phytohemagglutinin and 50 μl of methanol served as controls.
(§11) The percentage of dead cells was determined after different numbers of hours of incubation.

Series [3] in a line: in vitro. It is filed as cell-based, human. The note with it: human, leucocytes, Culture II, read-out: % of dead cells. On the procedure: as §1, §2, §3, §4, §5, §6, §7, §8, §9, §10, §11
The mark [4] stands for this setting: carboxy-1-adamantane C3 = 4.5 μg/ml.
Where [5] appears, read: carboxy-1-adamantane C6 = 22.5 μg/ml.

Read-outs that look alike come from different tables or passages of the source.

Take `O=C(O)C12CC3CC(CC(C3)C1)C2` [carboxy-1-adamantane]: the “Count of leucocytes after 72 hours” value in series [1] (setting [4]) was 215,000. The “Count of leucocytes after 72 hours” value in series [1] (setting [5]) is given as 230,000. Also, in series [1] (very approximative), the “number of leucocytes in absence or presence of substance (in words)” value is given as “remain substantially the same”. Also, the “cytotoxicity, cultures I and II (in words)” value in series [2] is recorded as “no effect until 46 hours of incubation”. In series [3] (setting [4]), the cytotoxicity at 23 h was found to be 18%, the cytotoxicity at 46 h stood at 12% and the cytotoxicity at 72 h is 25%. Further, in series [3] (setting [5]), the cytotoxicity at 23 h came out at 14%, the cytotoxicity at 46 h came out at 10% and the cytotoxicity at 72 h was 25%.
